How the values were obtained:
[1] = human, in vivo
[2] = system: OATP1B3; conditions: in vitro; cited from earlier work
[3] = system: OAT2; conditions: in vitro; cited from earlier work
[4] = clinical; conditions: human, in vivo
[5] = clinical; conditions: human, in vivo; remark: listed apart in the source

CL [1] | T1/2 [1] | clearance ([4]; CL) [mL/min] | half-life ([4]; T1/2) [h] | Tmax [5] [h] | SMILES | substrate for liver OATP1B3 [2] | substrate for liver OAT2 [3]
18.1 ± 4.35(7) l/h | 60.2 ± 31.0(7) h | 272 | 45.1 ± 20 |  | CC(=O)O[C@@]12CO[C@@H]1C[C@H](O)[C@@]1(C)C(=O)[C@H](O)C3=C(C)[C@@H](OC(=O)[C@H](O)[C@@H](NC(=O)OC(C)(C)C)c4ccccc4)C[C@@](O)([C@@H](OC(=O)c4ccccc4)[C@H]21)C3(C)C [Docetaxel] | substrates for liver OATP1B3 | substrate for liver OAT2
 |  |  |  | 5 | Cc1ccc(NC(=O)c2ccc(CN3CCN(C)CC3)cc2)cc1Nc1nccc(-c2cccnc2)n1 [Imatinib] |  | 
